Measured values: the NIST ThermoML archive (doi:10.1021/acs.jced.6b00959)

Assay: molar heat capacity at constant pressure
Settings: Liquid, Flow calorimetry

C=C(F)C(F)(F)F [2,3,3,3-tetrafluoro-1-propene]
Settings | molar heat capacity at constant pressure [J/K/mol]
303.53 K, 2030 kPa | 157.15
303.55 K, 2530 kPa | 156.01
303.58 K, 1570 kPa | 160.11
303.6 K, 8010 kPa | 146.09
303.6 K, 8490 kPa | 146.2
303.6 K, 10010 kPa | 145.75
303.61 K, 6980 kPa | 146.66
303.61 K, 7490 kPa | 146.89
303.61 K, 8980 kPa | 145.75
303.61 K, 9470 kPa | 145.75
303.67 K, 10990 kPa | 144.49
303.72 K, 3040 kPa | 154.41
303.72 K, 10520 kPa | 144.95
303.73 K, 5000 kPa | 150.88
303.74 K, 3530 kPa | 154.18
303.75 K, 4020 kPa | 153.16
303.75 K, 5520 kPa | 150.19
303.77 K, 6510 kPa | 148.6
303.79 K, 11450 kPa | 144.03
303.79 K, 12070 kPa | 143.69
303.8 K, 5980 kPa | 148.82
303.81 K, 4520 kPa | 151.45
313.61 K, 6020 kPa | 154.3
313.63 K, 5000 kPa | 157.04
313.64 K, 4490 kPa | 158.18
313.64 K, 7500 kPa | 151.68
313.64 K, 7980 kPa | 151.11
313.65 K, 8490 kPa | 150.65
313.66 K, 1510 kPa | 166.04
313.66 K, 4000 kPa | 159.77
313.66 K, 6990 kPa | 152.82
313.67 K, 2010 kPa | 165.36
313.69 K, 2510 kPa | 165.02
313.69 K, 3000 kPa | 164.11
313.69 K, 6500 kPa | 153.96
313.7 K, 9500 kPa | 149.85
313.7 K, 10010 kPa | 149.51
313.7 K, 11460 kPa | 147.8
313.72 K, 3510 kPa | 162.62
313.72 K, 8970 kPa | 150.31
313.72 K, 10500 kPa | 148.94
313.72 K, 10980 kPa | 148.6
313.72 K, 12040 kPa | 147.46
313.79 K, 5490 kPa | 154.53
323.62 K, 2020 kPa | 170.26
323.63 K, 6940 kPa | 155.67
323.64 K, 7520 kPa | 154.98
323.64 K, 8000 kPa | 154.41
323.64 K, 8510 kPa | 153.73
323.65 K, 2500 kPa | 168.67
323.65 K, 9540 kPa | 152.25
323.66 K, 8960 kPa | 153.39
323.66 K, 9990 kPa | 152.02
323.68 K, 3010 kPa | 167.41
323.68 K, 10980 kPa | 151.11
323.69 K, 3510 kPa | 165.93
323.69 K, 4520 kPa | 162.51
323.69 K, 6490 kPa | 157.61
323.69 K, 10530 kPa | 151.79
323.7 K, 11470 kPa | 150.31
323.71 K, 3990 kPa | 164.79
323.71 K, 5020 kPa | 161.37
323.71 K, 5500 kPa | 159.89
323.71 K, 5990 kPa | 159.09
323.73 K, 12010 kPa | 150.08
333.61 K, 5490 kPa | 165.47
333.63 K, 3000 kPa | 179.5
333.63 K, 5980 kPa | 164.68
333.66 K, 3480 kPa | 177.56
333.66 K, 4500 kPa | 170.72
333.66 K, 7020 kPa | 161.71
333.67 K, 2080 kPa | 185.77
333.68 K, 2520 kPa | 183.95
333.68 K, 5000 kPa | 169.12
333.68 K, 6510 kPa | 162.74
333.69 K, 7500 kPa | 161.03
333.69 K, 9010 kPa | 159.09
333.69 K, 9990 kPa | 156.69
333.71 K, 4040 kPa | 175.4
333.72 K, 8010 kPa | 160.68
333.72 K, 8500 kPa | 159.66
333.72 K, 9490 kPa | 157.61
333.79 K, 10520 kPa | 155.21
333.79 K, 11000 kPa | 154.75
333.82 K, 11480 kPa | 154.07
333.82 K, 12030 kPa | 153.61
343.67 K, 10510 kPa | 157.83
343.68 K, 2530 kPa | 204.93
343.68 K, 3510 kPa | 187.26
343.68 K, 11500 kPa | 156.58
343.69 K, 11060 kPa | 156.92
343.7 K, 4490 kPa | 178.48
343.7 K, 9470 kPa | 159.89
343.7 K, 12010 kPa | 155.89
343.71 K, 7000 kPa | 165.47
343.72 K, 6040 kPa | 169.35
343.73 K, 6510 kPa | 168.55
343.73 K, 7500 kPa | 164.45
343.73 K, 7980 kPa | 163.76
343.74 K, 3990 kPa | 183.49
343.75 K, 5020 kPa | 175.74
343.75 K, 10020 kPa | 159.54
343.77 K, 8520 kPa | 163.19
343.79 K, 3010 kPa | 196.61
343.8 K, 9010 kPa | 162.51
343.81 K, 5560 kPa | 173.23
353.69 K, 10520 kPa | 163.99
353.71 K, 6510 kPa | 177.79
353.71 K, 8500 kPa | 169.24
353.73 K, 4510 kPa | 196.61
353.73 K, 4990 kPa | 190.11
353.73 K, 5500 kPa | 185.77
353.73 K, 11010 kPa | 162.85
353.74 K, 8990 kPa | 168.33
353.75 K, 6990 kPa | 175.97
353.76 K, 11520 kPa | 162.62
353.77 K, 9530 kPa | 166.96
353.78 K, 6040 kPa | 182.58
353.78 K, 12010 kPa | 161.94
353.79 K, 7490 kPa | 173.8
353.79 K, 10010 kPa | 165.93
353.81 K, 7990 kPa | 172.66
363.69 K, 6030 kPa | 189.42
363.73 K, 10520 kPa | 167.98
363.74 K, 5480 kPa | 198.2
363.75 K, 4510 kPa | 225
363.75 K, 7990 kPa | 175.85
363.76 K, 7020 kPa | 181.78
363.76 K, 10010 kPa | 169.12
363.76 K, 11050 kPa | 167.3
363.77 K, 6500 kPa | 186.46
363.78 K, 4990 kPa | 209.38
363.78 K, 7530 kPa | 178.7
363.78 K, 8990 kPa | 172.09
363.78 K, 11500 kPa | 166.96
363.79 K, 8510 kPa | 174.26
363.8 K, 9490 kPa | 171.06
363.83 K, 12080 kPa | 166.96
373.09 K, 4510 kPa | 297.19
373.19 K, 4990 kPa | 241.54
373.24 K, 5480 kPa | 217.82
373.28 K, 5980 kPa | 202.31
373.3 K, 6490 kPa | 191.25
373.3 K, 7000 kPa | 185.09
373.3 K, 7520 kPa | 180.3
373.32 K, 8030 kPa | 177.33
373.32 K, 8510 kPa | 174.94
373.32 K, 8990 kPa | 172.32
373.34 K, 9510 kPa | 171.52
373.36 K, 9990 kPa | 170.95
373.38 K, 10530 kPa | 169.58
373.39 K, 11020 kPa | 168.44
373.4 K, 11510 kPa | 167.87
373.42 K, 11980 kPa | 167.41
